Measurements from PubChem BioAssay (NCI).
Where “and” joins values, the source holds several entries; their conditions need not be identical. Identical values can stand only once.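 In this assay, cells in 96-well plates receive the compound at five concentrations for 48 hours. Endpoints are linearly interpolated between the surrounding concentrations. Here, GI50 denotes the concentration required for 50% inhibition of growth. At the TGI there is no net growth.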

Legend:
Experiment in all cases: NCI anticancer screen, dose series, 48 h
[1] = tested on: A498 renal
[2] = tested on: CCRF-CEM leukemia
[3] = tested on: DMS 273 small cell lung
[4] = tested on: HCT-15 colon
[5] = tested on: HT29 colon
[6] = tested on: IGROV1 ovarian
[7] = tested on: NCI-H226 lung
[8] = tested on: RPMI-8226 leukemia
[9] = tested on: UACC-257 melanoma
[10] = tested on: XF 498 CNS

| Structure (SMILES) | TGI [1] | TGI [2] | TGI [3] | TGI [4] | TGI [5] | TGI [6] | TGI [7] | TGI [8] | TGI [9] | TGI [10] | GI50 [1] | GI50 [2] | GI50 [3] | GI50 [4] | GI50 [5] | GI50 [6] | GI50 [7] | GI50 [8] | GI50 [9] | GI50 [10] |
| --- | --- | --- | --- | --- | --- | --- | --- | --- | --- | --- | --- | --- | --- | --- | --- | --- | --- | --- | --- | --- |
| CC1=C2CC[C@@]3(C)C(=CCC3O)C2(C)CCC1=O (stereo not given in full) | > 100 µM | > 100 µM | > 100 µM | > 100 µM | > 100 µM | > 100 µM | > 100 µM | > 100 µM | > 100 µM |  |  |  |  |  |  |  |  |  |  |  |
| OC1CC(O)O[C@H](c2ccccc2)C1 (stereo not given in full) | > 100 µM | > 100 µM | > 100 µM | > 100 µM | > 100 µM | > 100 µM | > 100 µM | > 100 µM | > 100 µM |  |  |  |  |  |  |  |  |  |  |  |
| Cc1[nH]c(=O)n2c(C)nnc2c1C(=O)O |  | > 100 µM |  | > 100 µM | > 100 µM | > 100 µM | > 100 µM | > 100 µM |  | > 100 µM |  |  |  |  |  |  |  |  |  |  |
| CC[O-].CC[O-].O=C1C=C([O-])C(=O)c2ccccc21.O=C1C=C([O-])C(=O)c2ccccc21.[Ti+4] | > 60.9 µM | > 100 µM | > 100 µM | > 100 µM | > 100 µM | > 100 µM | > 100 µM | > 100 µM | > 100 µM | > 100 µM | 22.5 µM | > 100 µM | > 63.5 µM | 60.6 µM | 22.4 µM | > 100 µM | > 82.8 µM | 8.08 µM | > 27.9 µM | > 100 µM |
| C[C@@H](NC1CCCC[C@@H]1O)c1ccccc1 (stereo not given in full) |  | > 100 µM | > 100 µM | > 100 µM | > 100 µM | > 100 µM | > 100 µM | > 100 µM | > 100 µM | > 100 µM |  |  |  |  |  |  |  |  |  |  |
| OC1(C(Sc2ccccc2)Sc2ccccc2)CCCCCC1 | 85.2 µM | 77.3 µM | 76.5 µM | 60.5 µM |  |  |  | 52.4 µM | 69.4 µM | 35.7 µM |  |  |  |  |  |  |  |  |  |  |
| CC(=O)Oc1ccc2c(=O)c(C(C)=O)coc2c1 | > 100 µM | > 100 µM | > 100 µM | > 100 µM | > 100 µM | > 100 µM | > 100 µM | > 100 µM | > 100 µM | > 100 µM |  |  |  |  |  |  |  |  |  |  |
| CC(=O)OC1C(O)C(C)OC(OC2C(OC(=O)C3CCC4C(C3)OC3(CC(OC(=O)/C=C/c5ccccc5)C(C)CO3)C43CO3)OC(C)C(O)C2OC(C)=O)C1O (stereo not given) | 0.188 µM | 0.084 µM | 0.111 µM | 1.82 µM | 0.0473 µM | 0.0922 µM | 0.0522 µM | 0.0945 µM | 0.0811 µM | 0.0896 µM |  |  |  |  |  |  |  |  |  |  |
| O=C(O)C1=Cc2cccc3cccc(c23)C1=O | 73.5 µM | > 100 µM | > 100 µM | > 100 µM | > 100 µM | > 100 µM | > 100 µM | > 100 µM | > 100 µM |  |  |  |  |  |  |  |  |  |  |  |
| COC(=O)c1cc(O)ccc1O |  | > 100 µM | > 100 µM | > 100 µM | > 100 µM | > 100 µM | > 100 µM | > 100 µM | > 100 µM | > 100 µM |  |  |  |  |  |  |  |  |  |  |
| CCCCCCCCCCCCC(O)C1CCC(C(O)CCCCC(O)CCCCCC2CC(CC(C)=O)C(=O)O2)O1 (stereo not given) | 20.6 µM | 5.6 µM and 8.12 µM | 13 µM | 5.23 µM and 17.9 µM | 2.65 µM and 15.4 µM | 3.1 µM and 26.6 µM | 4.19 µM and 12.7 µM | 4.73 µM and 18.5 µM | 5.08 µM and 6.25 µM | 8.44 µM | 5.64 µM |  |  | 2.56 µM | 1.37 µM | 1.49 µM | 0.0401 µM | 1.28 µM and 0.367 µM | 1.13 µM |  |
| CS(=O)(=O)N1CCC(Nc2ncc(C(=O)c3c(F)cccc3F)c(N)n2)CC1 | > 25 µM | > 25 µM |  | > 25 µM | > 25 µM | > 25 µM | > 25 µM | > 25 µM | > 25 µM |  | 9.15 µM | 9.91 µM |  | 11.8 µM | 10.1 µM | 11.4 µM | 7.27 µM | 7.67 µM | 13.2 µM |  |
| O=C(/C=C(/C=C/c1cccc2[nH]ccc12)OB(F)F)/C=C/c1cccc2[nH]ccc12 | 3.42 µM |  |  | 1.49 µM | 3.92 µM | 6 µM | 5.59 µM | 2.55 µM | 11.8 µM |  | 1.7 µM | 0.324 µM |  | 0.348 µM | 0.516 µM | 0.62 µM | 1.87 µM | 0.354 µM | 2.15 µM |  |
| COc1ccc(C2=C(c3ccccc3)C(=O)N3CCCC3C2)cc1 (stereo not given) | > 100 µM | > 100 µM |  | > 100 µM | > 100 µM | > 100 µM | > 100 µM | > 100 µM | > 100 µM |  | > 100 µM | 1.79 µM |  | < 0.0249 µM | 0.233 µM | 8.51 µM |  | 0.318 µM | > 49 µM |  |
| O=C(O)c1ccc(CSc2nc3ccccc3[nH]2)cc1 | > 100 µM | > 100 µM |  | > 100 µM | > 100 µM | > 100 µM | > 100 µM | > 100 µM | > 100 µM |  | > 100 µM | > 100 µM |  | > 100 µM | > 100 µM | > 100 µM | > 100 µM | > 100 µM | > 100 µM |  |
| COc1ccc(-c2nc3sccn3c2-c2ccnc(NCCNS(=O)(=O)c3ccc(C(F)(F)F)cc3)n2)cc1 | 6.86 µM | > 100 µM |  | > 100 µM | > 100 µM | > 100 µM | 10.3 µM | 5.53 µM | > 100 µM |  | 0.31 µM | 0.37 µM |  | 2.59 µM | 2.45 µM | 3.18 µM | 2.42 µM | 0.626 µM | 4.41 µM |  |
| COc1ccccc1CNCCCN1C(=O)c2ccc3c4c(ccc(c24)C1=O)C(=O)N(CCCNCCCCNCCCN)C3=O | 3.14 µM | 19.9 µM |  | 5.73 µM | 0.995 µM | 11.1 µM | 2.71 µM | 10.8 µM | 0.33 µM |  | 1.34 µM | 0.425 µM |  | 1.75 µM | 0.287 µM | 0.359 µM | 0.911 µM | 0.626 µM | 0.176 µM |  |
